Reference: patent publication US20050065206A1, “Skin preparation comprising a tocopherol derivative for external application” (priority 2001, published 2005)

How the values were obtained:
[1] = test system: skin removed from the back of a hairless mouse; experiment: Evaluation of skin penetrability, amount of γ-tocopherol in the skin; assay type: in vitro ADME; settings: 4 hours at 37° C.; for amount of γ-tocopherol in the skin: 0.50 (mass %) in Dulbecco's MEM medium, HPLC, not added: 10
[2] = test system: skin removed from the back of a hairless mouse; experiment: Evaluation of skin penetrability, amount of α-tocopherol in the skin; assay type: in vitro ADME; settings: 4 hours at 37° C.; for amount of α-tocopherol in the skin: 0.50 (mass %) in Dulbecco's MEM medium, HPLC, not added: 10
[3] = test system: keratinocytes of normal human epidermis; settings: final concentration 1 mM, 37° C. for 2 hours; not added: lower than detection limit
Method: The cells were harvested and spalled by freeze-thawing method. To this cell spall solution, 1), 2) or 3) was added to have a final concentration of 1 mM. The resulting solution was kept at 37° C. for 2 hours and then the amount of α-tocopherol liberated in the reaction solution was measured.

SMILES	amount of γ-tocopherol in the skin [1]	change of the γ-tocopherol amount in the treated skin ([1]; 0.50 in medium)	amount of α-tocopherol in the skin [2]	change of the α-tocopherol amount in the treated skin ([2]; 0.50 in medium)	amount of α-tocopherol liberated in the reaction solution [3]
Cc1c(OC(=O)CN)cc2c(c1C)OC(C)(CCCC(C)CCCC(C)CCCC(C)C)CC2.Cl (stereo not shown)	24 nmol/g of skin	significant increase	–	–	–
Cc1c(C)c2c(c(C)c1OC(=O)CN)CCC(C)(CCCC(C)CCCC(C)CCCC(C)C)O2.Cl (stereo not shown)	–	–	24 nmol/g of skin	significant increase	–
CC(=O)Oc1cc2c(c(C)c1C)OC(C)(CCCC(C)CCCC(C)CCCC(C)C)CC2 (stereo not shown) [γ-Tocopherol acetate, reference compound]	11 nmol/g of skin	–	–	–	–
CC(=O)Oc1c(C)c(C)c2c(c1C)CCC(C)(CCC[C@H](C)CCC[C@H](C)CCCC(C)C)O2 (stereo partly drawn) [α-Tocopherol acetate, reference compound]	–	–	11 nmol/g of skin	–	0.5 nmol/ml of cell suspension
